Laboratory results as given in patent US20200207989A1, “FLUORESCENT PROBE FOR ALDH3A1 DETECTION” (The University of Tokyo, priority 2016, published 2020).

Assays:
OE21 cells [1] = assay: Flow cytometry of OE21 cells (positive rate); format: cell-based
Description: Flow cytometry was carried out using probe 5 and OE21 cells. The cells were treated using trypsin, and the cell density was measured after passing the cells through a cell strainer (40 μm, Corning). […] After centrifuging for three minutes at 1500 rpm and removing the supernatant after the reaction, the cells were washed with chilled medium, centrifuged, and the medium was removed. The cells were again suspended in 100 μL of medium, and 4 μL of SYTOX (registered trademark) Red Dead Cell Stain (Thermo Fisher) was added. After standing for five minutes on ice, 150 μL of medium was added. […] Analysis was carried out using FACS Canto II (BD Biosciences). Excitation was provided by a blue laser (488 nm), and the brightness of probe 5 was detected in each cell by FITC channel (515-545 nm). About 30,000 cells were analyzed in each sample after removing doublets and removing dead cells. The positive gate was set in a range from near to above the upper limit of brightness in the negative control according to ALDEFLUOR assay, so that at most 3% of the cells were present within the gate in the negative control sample. Three independent tests were run.
ALDH3A1 was knocked down using small interference RNA (siRNA) to confirm that the positive group in flow cytometry using 0E21 cells and compound 5 was due to ALDH3A1 activity, and flow cytometry was conducted. Two siRNAs confirmed to be effective (Silencer (registered trademark) Select, s1243 and s1244) and a negative control (Silencer® negative control #1) were purchased from Thermo Fisher. Lipofectamine® RNAiMAX as transfection reagent and Opti-MEM® as diluent were purchased from Thermo Fisher. According to the instruction manual, 300 μL of siRNA-Lipofectamine complex was produced according to the instruction manual so that siRNA was 10 nM and Lipofectamine was 3%, and 250 μL thereof was mixed with 2.5 mL of OE21 cell suspension and sown in six-well dishes. The effect of knockdown was confirmed after six days by Western blotting (FIG. 6a).
Lysates were produced using negative control cells (ctrl) in which ALDH3A1 was not knocked down and cells (KD) in which ALDH3A1 was permanently knocked down. Western blotting was carried out, and pronounced knockdown of ALDH3A1 was confirmed (FIG. 9a). […] The top 25% (top) and bottom 25% (bottom) of fluorescent brightness were sorted out by FACS Aria II using a sample in which the positive and negative were well separated. The respective lysates were produced, Western blotting was carried out using the same, and the expression levels of ALDH3A1 were compared (FIG. 9c).

ALDH3A1 = target: T1, ALDH3A1 (Homo sapiens, UniProt P30838); assay: Kinetic characteristics (Michaelis-Menten Km, Kcat) with ALDH3A1; format: biochemical; details: five minutes at 37° C., Tris buffer pH 7.5
T1 construct: purchased
T1 sequence (P30838 1-453): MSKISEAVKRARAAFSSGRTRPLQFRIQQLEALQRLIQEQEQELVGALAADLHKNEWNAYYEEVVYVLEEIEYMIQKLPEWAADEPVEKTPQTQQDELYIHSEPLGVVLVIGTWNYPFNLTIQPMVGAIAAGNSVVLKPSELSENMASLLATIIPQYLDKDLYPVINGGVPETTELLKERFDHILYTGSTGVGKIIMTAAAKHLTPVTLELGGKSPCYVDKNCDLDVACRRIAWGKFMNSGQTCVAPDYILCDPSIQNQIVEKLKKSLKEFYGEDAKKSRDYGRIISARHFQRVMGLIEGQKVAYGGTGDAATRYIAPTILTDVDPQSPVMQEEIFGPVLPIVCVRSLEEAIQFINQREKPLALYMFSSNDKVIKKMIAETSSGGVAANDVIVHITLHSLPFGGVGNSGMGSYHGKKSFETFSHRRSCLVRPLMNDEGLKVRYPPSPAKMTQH
Description: Human recombinant ALDH1A1/1A3/3A1 was purchased, and 100 mM of KCL, 2 mM of DTT, 1 mM of NAD(P), 10-100 nM of each ALDH, and 10-80 μM of each compound were mixed in Tris buffer (100 mM, pH 7.5), reacted for 30 minutes at 37° C., an equal amount of acetonitrile added, and the reaction stopped. The reaction solution was analyzed by UPLC/MS/MS (Waters). The UPCL chromatogram was carried out over five minutes at a flow rate of 800 μL/min by a linear gradient from 5% acetonitrile 0.01 M ammonium formate/water to 95% acetonitrile 0.01 M ammonium formate/water. An aldehyde-form and carboxylic acid-form probe were detected by the absorbance at a wavelength of 504 nm, and m/z of the MS spectrum at each peak was confirmed to agree with the expected m/z.
For the reaction, 100 mM of KCL, 2 mM of DTT, 1 mM of NAD(P), and five to six concentrations within the range of 10-100 nM of each ALDH and 0.1-80 μM of each probe were selected, mixed in Tris buffer (100 mM, pH 7.5), and reacted for five minutes at 37° C.; an equal amount of acetonitrile was added, and the reaction was stopped. Detection of the aldehyde-form/carboxylic acid-form probes was carried out using the same method as described above by UPLC/MS/MS. Km and Kcat were calculated by fitting the reaction rate at each probe concentration obtained to the Michaelis-Menten equation. A Kaleida Graph ver. 4.1 (Hulinks, Inc.) was used in fitting.
The Kcat ratio (Kcat of ALDH3A1/Kcat of ALDH1A1) was calculated for probe 1, probe 3, and probe 5 as an indicator of ALDH1A1/ALDH3A1 specificity because the probe reaction rate at the actual probe use concentration is believed to be close to Vmax since Km is relatively small (Table 5).

OE21 cells [2] = assay: SYTOX Red Dead Cell Stain assay during flow cytometry; format: cell-based; details: OE21 shRNA cells, probe 5 with MK-571, SYTOX Red Dead Cell Stain
Description: Flow cytometry was carried out using probe 5 and OE21 cells. The cells were treated using trypsin, and the cell density was measured after passing the cells through a cell strainer (40 μm, Corning). A quantity of 500 μL of a cell suspension to make 2.5-5×10^5/mL in medium containing 40 μM of probe 5 was prepared and cultured for 90 minutes at 37° C. After centrifuging for three minutes at 1500 rpm and removing the supernatant after the reaction, the cells were washed with chilled medium, centrifuged, and the medium was removed. The cells were again suspended in 100 μL of medium, and 4 μL of SYTOX (registered trademark) Red Dead Cell Stain (Thermo Fisher) was added. After standing for five minutes on ice, 150 μL of medium was added. A sample with CB7 (10 μM) added was used as a negative control. Analysis was carried out using FACS Canto II (BD Biosciences). Excitation was provided by a blue laser (488 nm), and the brightness of probe 5 was detected in each cell by FITC channel (515-545 nm). About 30,000 cells were analyzed in each sample after removing doublets and removing dead cells. The positive gate was set in a range from near to above the upper limit of brightness in the negative control according to ALDEFLUOR assay, so that at most 3% of the cells were present within the gate in the negative control sample. Three independent tests were run. […]

[3] = 50 μM probe 5, 200 μM MK-571, CB7 20 μM control

CCN(CCOCCNC(=O)c1ccc(-c2c3ccc(=O)cc-3oc3cc(O)ccc23)c(C)c1)c1ccc(C=O)cc1 [Probe 5, 2-(2-(N-ethyl-N-(4-formylphenyl)amino)ethoxy)ethyl-3-methyl-4-(6-hydroxyxanthen-3-on-9-yl)-benzamide] was tested, and the “Positive rate in flow cytometry” value (OE21 cells [1]; 40 μM probe 5, 90 minutes at 37° C., no MK-571, gate set with CB7 10 μM control) was 10-15%, the “Positive rate in flow cytometry with MK-571, ALDH3A1 siRNA knockdown” value (OE21 cells [1]; [3]) was “around 10%” and the “Positive rate in flow cytometry with MK-571, cells treated by negative control siRNA” value (OE21 cells [1]; [3]) was “about 90%”. The “Positive rate in flow cytometry with MK-571” value (OE21 cells [1]; 50 μM probe 5, MK-571 200 μM) was “about 90%”, the Km (ALDH3A1) was 3.49 ± 0.55 µM and the “Dead cells / cell death due to the probe” value (OE21 cells [2]) was “virtually no dead cells were found”.
